12 compounds from ChEMBL document CHEMBL1201862, “PubChem BioAssay data set” (2004) can be followed below.

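Growth conditions: 96-well plates. Treatment: test compound, 48 hours, 5 concentrations. Analysis: linear interpolation between bracketing concentrations; unreached endpoints set to highest concentration. GI50 is the concentration that inhibits growth by half.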 Activity calls are given as the source filed them. Rule as the data show it: active = GI50 up to about 1.1 µM and inactive = higher.

What all share (assay): inhibition of tumour cell growth, NCI panel, 48 h
Experiment [1] relates to 786-0.
Experiment [2] concerns ACHN.
The test system of experiment [3] is HOP-62.
The subject of experiment [4] is K562.
The subject of experiment [5] is KM-20L2.
For experiment [6], the system named is LOX IMVI.
Experiment [7] deals with LXFL 529.
The test system of experiment [8] is NCI-H23.
For experiment [9], the system named is NCI-H522.
For experiment [10], the system named is OVCAR-4.
The subject of experiment [11] is RXF 393.
For experiment [12], the system named is SNB-19.
Experiment [13] relates to SW-620.
Experiment [14] concerns TK-10.
In experiment [15] the test system is OVCAR-8.
In experiment [16] the test system is U-251.

`CN(C)/N=C(\CCN1CCCC1)CC(c1ccccc1)c1c(O)c2ccccc2oc1=O` (stereo unspecified): the GI50 in experiment [1], in experiment [2], in [3], in experiment [4], in experiment [5] and in experiment [6] was > 100 µM (inactive) each time. The GI50 in experiment [7], in experiment [8], in [9], in experiment [10], in [11] and in experiment [12] was > 100 µM (inactive) throughout. Also, the GI50 in experiment [13] and in experiment [14] was > 100 µM (inactive) each time.
As for `CCOC1=CP(=O)(OCC)CC(C)=C1Cl` (stereo unspecified), the GI50 in [1], in experiment [2], in experiment [3], in experiment [4], in [5] and in experiment [6] was > 100 µM (inactive) each time. The GI50 in experiment [7] was > 100 µM (inactive); in [8], > 100 µM (inactive); in experiment [9] it was > 100 µM (inactive); in experiment [15], > 100 µM (inactive); in experiment [11], > 10 µM (inactive); in [12] it was > 100 µM (inactive). Besides, the GI50 in experiment [13], in experiment [14] and in experiment [16] was > 100 µM (inactive) in each case.
Take `Cc1cc(Cl)cc2c1NC(=O)C2(O)C(C)C(=O)c1ccc(Cl)cc1` (stereo unspecified): the GI50 was 85.7 µM (inactive) in [1]; > 100 µM (inactive) in experiment [2]; > 100 µM (inactive) in [3]; > 58.9 µM (inactive) in experiment [4]; > 100 µM (inactive) in [5]; > 100 µM (inactive) in experiment [6]. Also, the GI50 in experiment [7] was > 66.5 µM (inactive); in [8], > 72.1 µM (inactive); in experiment [9], 39.9 µM (inactive); in [10], 21.8 µM (inactive); in experiment [15], > 85.9 µM (inactive); in [11], 47.8 µM (inactive). Besides, the GI50 in experiment [12] was > 100 µM (inactive); in [13], > 74.8 µM (inactive); in [14], > 100 µM (inactive); in [16], 72.4 µM (inactive).
As for `CC1OC=CC(=O)C1O` (stereo unspecified), the GI50 in [2], in experiment [3], in experiment [4], in experiment [5], in [6] and in experiment [7] was > 100 µM (inactive) in each case. The GI50 is > 100 µM (inactive) in experiment [8]; 50.4 µM (inactive) in experiment [9]; > 100 µM (inactive) in experiment [10]; > 100 µM (inactive) in [15]; > 100 µM (inactive) in [11]; > 100 µM (inactive) in experiment [13]. In addition, the GI50 in [14] and in experiment [16] was > 100 µM (inactive) throughout.
On to `N#CCCc1nc2ccc(Br)cc2c(=O)n1-c1ccc(O)c([N+](=O)[O-])c1`, for which the GI50 is 19.3 µM (inactive) in experiment [1]; 30.3 µM (inactive) in experiment [2]; 36.5 µM (inactive) in [3]; 23.9 µM (inactive) in experiment [4]; 46.3 µM (inactive) in [5]; 19 µM (inactive) in experiment [6]. The GI50 is 20 µM (inactive) in [7]; 20.8 µM (inactive) in [8]; 15.8 µM (inactive) in [9]; 20.5 µM (inactive) in [10]; 26.9 µM (inactive) in experiment [15]; 18.1 µM (inactive) in [11]. Further, the GI50 was 22.1 µM (inactive) in experiment [13], 34.7 µM (inactive) in experiment [14] and > 10 µM (inactive) in experiment [16].
With `CCOC(=O)C1=C(Nc2ccc(Cl)cc2Cl)OC/C1=N\NS(=O)(=O)c1ccc(C)cc1`, the GI50 in experiment [1], in experiment [2], in experiment [3], in experiment [4], in experiment [5] and in [6] was > 100 µM (inactive) in each case. For the same compound, the GI50 in experiment [7], in [8], in [9], in experiment [10], in experiment [15] and in experiment [11] was > 100 µM (inactive) in each case. The GI50 in experiment [12], in experiment [13], in experiment [14] and in [16] was > 100 µM (inactive) each time.
Take `CC1=C[C@@H]2Cc3occc3C(C)(C)[C@@H]2CC1`: the GI50 is 19.4 µM (inactive) in experiment [1]; 16 µM (inactive) in [2]; 32.4 µM (inactive) in experiment [3]; 21.1 µM (inactive) in experiment [4]; 18.5 µM (inactive) in [5]; 19.2 µM (inactive) in experiment [6]. The GI50 in [7] was 37.5 µM (inactive); in [8], 24.5 µM (inactive); in experiment [9] it was 14.7 µM (inactive); in [10], 29.4 µM (inactive); in [15], 19.5 µM (inactive); in [11], 18.7 µM (inactive). Further, the GI50 in experiment [12] is > 10 µM (inactive); in experiment [13], 17.1 µM (inactive); in experiment [14], 22.4 µM (inactive); in experiment [16], 18.5 µM (inactive).
Regarding `O=C(O)/C=C/c1ccncc1`, the GI50 in [1] is > 100 µM (inactive); in experiment [2], > 100 µM (inactive); in [3], 0.223 µM (active); in experiment [4] it was > 100 µM (inactive); in experiment [5], > 100 µM (inactive); in experiment [6], > 100 µM (inactive). The GI50 in experiment [7], in experiment [8], in [9], in [10], in experiment [15] and in [11] was > 100 µM (inactive) throughout. Besides, the GI50 in experiment [12] was > 100 µM (inactive); in [13], > 100 µM (inactive); in [14], > 100 µM (inactive); in experiment [16], 0.173 µM (active).
On to `N#C/N=C(/N)NCO`, for which the GI50 in [1] was > 43.8 µM (inactive); in experiment [2] it was > 100 µM (inactive); in experiment [3], > 100 µM (inactive); in [4], > 76 µM (inactive); in experiment [5] it was > 51.4 µM (inactive); in experiment [6], > 39.9 µM (inactive). Further, the GI50 in [7] was > 63.1 µM (inactive); in experiment [8], > 100 µM (inactive); in [9], > 100 µM (inactive); in experiment [10] it was > 100 µM (inactive); in experiment [15] it was > 100 µM (inactive); in experiment [11], 16.5 µM (inactive). Besides, the GI50 in [12] was > 100 µM (inactive); in experiment [13] it was > 37.8 µM (inactive); in [14], > 100 µM (inactive); in experiment [16], > 53.7 µM (inactive).
Turning to `CS/C(=N\C(=S)N(C)C)N(c1ccccc1)c1nc(N(C)C)s[s+]1`, the GI50 was 16.4 µM (inactive) in experiment [1]; 23.8 µM (inactive) in experiment [2]; 19.5 µM (inactive) in experiment [3]; 2.56 µM (inactive) in experiment [4]; 15.9 µM (inactive) in experiment [5]; 5.74 µM (inactive) in [6]. The GI50 in [7] was 3.87 µM (inactive); in [8], 12.4 µM (inactive); in experiment [9], 1.47 µM (inactive); in [10], 12.2 µM (inactive); in [15] it was 10.4 µM (inactive); in experiment [11], 14 µM (inactive). Also, the GI50 in [12] is 32.6 µM (inactive); in experiment [13] it was 4.05 µM (inactive); in experiment [14], 40.3 µM (inactive); in experiment [16], 6.84 µM (inactive).
`Cc1nc2c(o1)/C(=N\c1ccccc1)c1ccccc1/C2=N/c1ccccc1`: the GI50 in experiment [1] was 45.1 µM (inactive); in experiment [2] it was 53.6 µM (inactive); in [3], > 100 µM (inactive); in experiment [4], 33.8 µM (inactive); in experiment [5], > 100 µM (inactive); in [6], 28.4 µM (inactive). Moreover, the GI50 in experiment [7] is 45.3 µM (inactive); in experiment [8] it was 49.2 µM (inactive); in experiment [9], 33 µM (inactive); in experiment [10], 58.7 µM (inactive); in experiment [15], > 100 µM (inactive); in [11], > 100 µM (inactive). The GI50 is > 100 µM (inactive) in experiment [12], 16.9 µM (inactive) in [13], > 100 µM (inactive) in [14] and 79.3 µM (inactive) in [16].
Consider `Cc1cccc(C(C)(C)C)c1NC(=O)CCc1nnc(S)[nH]1`, for which the GI50 in experiment [1], in [2], in [3], in experiment [4], in experiment [5] and in experiment [6] was > 100 µM (inactive) in each case. The GI50 in experiment [7], in experiment [8], in [9], in [10], in [15] and in experiment [11] was > 100 µM (inactive) each time. Further, the GI50 in experiment [12], in [13], in experiment [14] and in experiment [16] was > 100 µM (inactive) each time.
